# How the values were obtained:
# [1] = test system: PVECs; test: qPCR of EndMT markers in PVECs treated in vitro with Simvastatin; type: cell-based, human; details: 5 µM Simvastatin sodium salt, 24 h
# Method: For portal vein endothelia cell (PVEC) isolation, excess surrounding fat tissue was meticulously removed from the vein using sterile scissors, and any residual blood was washed away with DPBS. Subsequently, the tubular vein was opened to expose the inner part of the vein facing upward. Trypsin EDTA 0,05% (Gibco, #25300054) was then added on the upper surface and incubated for 5 minutes at 37°C. EGM-2 medium was then added abundantly over the tissue and a cell scrapper (TPP-Reactiva, #99002) was used to carefully scrap the surface of the inner wall several times, in order to detach the endothelial cells from the vein wall. The EGM-2 medium with cells in suspension was then centrifuged at 300 g for 5 minutes and pellet resuspended in 2 ml of fresh EGM-2. Cells were then seeded in a well from a 6-well plate pre-coated with human plasma fibronectin at a concentration of 1 µg/cm^2 (Sigma, #F0895), and fresh media changed every other day until confluence. On average, confluence was reached 10 days after isolation.
# In order to isolate PVECs from other cell types that were also scrapped during the initial tissue processing, cells were detached, stained with anti-CD31-FITC (BD Bioscience, #555445) and CD144 -BV786 (BD Bioscience, #565672) antibodies and FACS sorted in a FACS Aria II cell sorter (BD Biosciences) according to manufacturer's instructions. PVECs were selected as CD31^+ CD144^+ cells and seeded back to either a 6-well plate, T25 or T75 flasks, depending on the cell amount obtained. Once ECs reached confluency, a third of the cells were collected in RLT buffer (Qiagen) for subsequent RNA isolation (passage 1), a third was used for flow cytometry purity analysis and the final one third was passaged into a new 6-well plate. From this moment onwards, […] portal vein endothelial cells (PVECs) were expanded at a split ratio of 1:5 until senescence. At every passage, a fraction of the cells was cryopreserved for future experiments, while the rest was used for flow cytometry purity check, RLT collection and tube assays. Endothelial phenotype of PVECs was routinely monitored by cell morphology, flow cytometry, immunofluorescence and tube formation capacity.
# (§1) PVECs were seeded in 6-well plates in triplicates (for RNA collection) and in 60mm dishes (for protein collection) at a concentration of 6x10^4 cells/ml and grow for 24 h to obtain 70% confluency. PVECs from CT (n=3), CH (n=7) and CH-PVT (n=6) were then treated in vitro with 5 µM Simvastatin sodium salt (Sigma, #567022) for another 24 h and collected in either RLT or RIPA buffer for further analysis by means of quantitative real-time polymerase chain reaction (qPCR) or Western blotting, respectively. Its effect on mesenchymal markers and EndMT promoters, including TFs and all the molecules involved in EndMT initiation or progression previously described, was studied.
# Total RNA was isolated by RNeasy Micro and Mini kit (Qiagen) as stated above. First-strand cDNA was synthesized using the High Capacity cDNA Reverse Transcription Kit (Applied, Thermo Fisher, #4368814) according to the manufacturer's instructions. Quantitative real-time PCR (qPCR) was performed using PowerUp™ sybr® Green Master Mix (Applied Biosystems, #A25776) with technical duplicates using an AB1 Prism® 7900 HT Cycler (Applied Biosystems). PCR cycle parameters were as follows: 95 °C for 10' followed by 40 cycles at 95 °C for 15" and 60 °C for 1'. Results were obtained with the Sequence Detection System 3.2 software (Applied Biosystems) and further analyzed by the 2-ΔΔCt method. GAPDH was used as a loading control. Results are shown as fold-change.
# [2] = test system: phosphor-SMAD2; test: Western blot of PVECs treated in vitro with simvastatin; type: cell-based, human; details: FIG. 10
# Method: as §1
# Proteins were extracted with RIPA buffer complemented with Halt Protease & Phosphatase inhibitors (ThermoFisher) and total protein estimated using Bradford's Reagent (Bio-Rad) following manufacturer's instructions. […] Extracted proteins were analyzed by western blot. […] Images were acquired with a LAS-4000 apparatus (Fujifilm, TDI, Alcobendas, Spain) and protein expression was determined by densitometric analysis using the Image Studio Lite software (LI-COR). Results are expressed as relative densitometric values normalized to endogenous control β-actin. […]
# [3] = PVECs from CT, CH and CH-PVT, qPCR, FIG. 9
# [4] = PVEC from cirrhotic patients with or without PVT, qPCR
structure (smiles),measurement,setting,value
"CCC(C)(C)C(=O)O[C@H]1C[C@@H](C)C=C2C=C[C@H](C)[C@H](CC[C@@H]3C[C@@H](O)CC(=O)O3)[C@H]21 [Simvastatin, [(1S,3R,7S,8S,8aR)-8-[2-[(2R,4R)-4-hydroxy-6-oxooxan-2-yl]ethyl]-3,7-dimethyl-1,2,3,7,8,8a-hexahydronaphthalen-1-yl] 2,2-dimethylbutanoate]",endothelial markers expression (Cd31),[1]; [3],increasing
same,endothelial markers expression (NOs3),[1]; [3],increasing
same,expression of mesenchymal markers (AIFM2),[1]; [4],reduced
same,expression of mesenchymal markers (CDH2),[1]; [4],reduced
same,expression of the adhesion molecule VCAM1,[1]; [4],reduced
same,EndMT occurring in PVEC,"[1]; overall finding, FIG. 9",can ameliorate
same,GTPase (Rac2) expression,[1]; qPCR,decreasing
same,Serpine1 expression,[1]; qPCR,decreasing
same,expression of transcription factor Snail1,[1]; qPCR,reduced
same,phosphor-SMAD2 protein levels,[2],capable of reducing
